pIC50: −log10 of the molar value.

This is an account of results in publication PMC9599717, “The Multicellular Effects of VDAC1 N-Terminal-Derived Peptide” (Biomolecules, 2022).

This assay concerns HeLa (human cervix adenocarcinoma). The experiment in a line: Cell death by PI staining and flow cytometry (FACS), HeLa. The following applies: HeLa cells. It is filed as cell-based. As for the experimental part:
MEC-1 cells were incubated in a serum-free medium with various concentrations of VDAC1-based peptides for 1.5 h at room temperature (RT), collected by centrifugation, washed with phosphate-buffered saline (PBS), and analyzed for cell death. Adherent cancer cells were seeded in culture plates and allowed to adhere overnight in a sterile cell culture incubation chamber maintained at 37 °C and 5% CO2. The next day, media was removed from the plates, and cells were treated with various concentrations of VDAC1-based peptides for the indicated time in serum-free Dulbecco’s Modified Eagle Medium (DMEM) with and without DMSO (final 0.15%) as a control for 6 h at 37 °C and 5% CO2. Cells were trypsinized, centrifuged (1500× g, 5 min), and washed with PBS.
Cell death was analyzed by the propidium iodide (PI) staining, followed by flow cytometry with the iCyt sy3200 Benchtop Cell Sorter/Analyzer and analysis with EC800 v 1.3.7 software (Sony Biotechnology Inc., San Jose, CA, USA). Apoptosis was analyzed by PI and annexin V-FITC staining, which was carried out according to the manufacturer’s instructions with minor modifications. […] Next, cells were washed and PI (6.25 μg/mL), was added immediately before flow cytometry At least 10,000 events were collected, recorded on a dot plot, and analyzed by flow cytometry. […]

With “19-FTKGYGFGL-26- RQIKIWFQNRRMKWKK [D-Δ(1-18)N-Ter-Antp]”, the “Maximal cell death (at the concentration for maximal cell death)” value (6 h) came out at 100%. Besides, under “6 h incubation, serum-free medium, PI staining and FACS, read-out: IC50, peptide concentration required for half-maximal cell death activity”, the pIC50 was 5.70.
